Each structure is given as a SMILES string. Activity calls are given as the source filed them. The calls are words filed in the database; no cut-off is given here.

The results in this text go back to ChEMBL document CHEMBL1153298, “Discovery of tetrahydro-cyclopenta[b]indole as selective LXRs modulator” (Bioorg Med Chem Lett, 2009).

For series [1], the target named is T1, Oxysterols receptor LXR-alpha (Homo sapiens, UniProt Q13133).
T1 sequence (Q13133 whole entry): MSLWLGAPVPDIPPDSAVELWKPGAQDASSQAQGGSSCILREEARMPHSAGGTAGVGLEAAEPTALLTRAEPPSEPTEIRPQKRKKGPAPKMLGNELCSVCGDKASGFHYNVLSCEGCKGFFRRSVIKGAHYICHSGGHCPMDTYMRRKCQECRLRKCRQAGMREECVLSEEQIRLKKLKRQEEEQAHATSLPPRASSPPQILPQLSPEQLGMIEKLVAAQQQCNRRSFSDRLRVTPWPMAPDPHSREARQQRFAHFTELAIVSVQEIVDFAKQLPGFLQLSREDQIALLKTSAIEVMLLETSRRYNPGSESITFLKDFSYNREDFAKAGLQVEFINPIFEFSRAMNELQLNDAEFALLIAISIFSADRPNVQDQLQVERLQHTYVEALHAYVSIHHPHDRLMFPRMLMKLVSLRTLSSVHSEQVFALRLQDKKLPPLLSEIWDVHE
Kind of series: (§1) Transactivation of LXRalpha.

The target of series [2] is T1, Oxysterols receptor LXR-alpha. Kind of series: (§2) Binding affinity to LXRalpha.
Series [3] deals with Mus musculus. Kind of series: Increase in plasma triglyceride level in C57BL/6J mouse at 100 mg/kg/day, ip dosed for 5 days measured 2 hrs after last dose. It counts as functional. Particulars: route intraperitoneal.
Series [4] in a line: Plasma concentration in C57BL/6J mouse at 100 mg/kg/day, ip dosed for 5 days. It counts as ADME, organism-based. The arrangement: route intraperitoneal.
The test system of series [5] is Mus musculus. In words: Increase in HDL-cholesterol level in C57BL/6J mouse at 40 mg/kg/day, ip dosed for 5 days measured 2 hrs after last dose. Conditions: route intraperitoneal. It counts as functional.
Series [6] has as its system Mus musculus. Kind of series: Increase in HDL-cholesterol level in C57BL/6J mouse at 100 mg/kg/day, ip dosed for 5 days measured 2 hrs after last dose. Conditions: route intraperitoneal. It is filed as functional.
Series [7] relates to Mus musculus. In words: Increase in liver triglyceride level in C57BL/6J mouse at 10 mg/kg/day, ip dosed for 5 days measured 2 hrs after last dose. Particulars: route intraperitoneal. It counts as functional.
Series [8] in a line: Drug level in C57BL/6J mouse liver at 40 mg/kg/day, ip dosed for 5 days. Particulars: read-out: Drug uptake. It counts as ADME, organism-based. The arrangement: route intraperitoneal.
For series [9], the system named is Mus musculus. Kind of series: Increase in liver triglyceride level in C57BL/6J mouse at 100 mg/kg/day, ip dosed for 5 days measured 2 hrs after last dose. It is filed as functional. Conditions: route intraperitoneal.
The nature of series [10]: Drug level in C57BL/6J mouse liver at 100 mg/kg/day, ip dosed for 5 days. It counts as ADME, organism-based. The arrangement: route intraperitoneal. Conditions: read-out: Drug uptake.
Series [11] relates to Mus musculus. In words: Increase in HDL-cholesterol level in C57BL/6J mouse at 10 mg/kg/day, ip dosed for 5 days measured 2 hrs after last dose. Conditions: route intraperitoneal. It counts as functional.
Series [12] addresses Voltage-gated inwardly rectifying potassium channel KCNH2 (Homo sapiens, UniProt Q12809). In words: Binding affinity to human ERG.
A short description of series [13]: Plasma concentration in C57BL/6J mouse at 10 mg/kg/day, ip dosed for 5 days. It counts as ADME, organism-based. The arrangement: route intraperitoneal.
For series [14], the system named is Mus musculus. Kind of series: Increase in plasma triglyceride level in C57BL/6J mouse at 40 mg/kg/day, ip dosed for 5 days measured 2 hrs after last dose. It counts as functional. Particulars: route intraperitoneal.
Series [15] has as its system Mus musculus. Kind of series: Increase in liver triglyceride level in C57BL/6J mouse at 40 mg/kg/day, ip dosed for 5 days measured 2 hrs after last dose. It is filed as functional. Conditions: route intraperitoneal.
For a further series, the target named is Cytochrome P450 3A4 (Homo sapiens, UniProt P08684). In words: Binding affinity to CYP3A4. It is filed as ADME.
Cytochrome P450 3A4, sequence (P08684 whole entry): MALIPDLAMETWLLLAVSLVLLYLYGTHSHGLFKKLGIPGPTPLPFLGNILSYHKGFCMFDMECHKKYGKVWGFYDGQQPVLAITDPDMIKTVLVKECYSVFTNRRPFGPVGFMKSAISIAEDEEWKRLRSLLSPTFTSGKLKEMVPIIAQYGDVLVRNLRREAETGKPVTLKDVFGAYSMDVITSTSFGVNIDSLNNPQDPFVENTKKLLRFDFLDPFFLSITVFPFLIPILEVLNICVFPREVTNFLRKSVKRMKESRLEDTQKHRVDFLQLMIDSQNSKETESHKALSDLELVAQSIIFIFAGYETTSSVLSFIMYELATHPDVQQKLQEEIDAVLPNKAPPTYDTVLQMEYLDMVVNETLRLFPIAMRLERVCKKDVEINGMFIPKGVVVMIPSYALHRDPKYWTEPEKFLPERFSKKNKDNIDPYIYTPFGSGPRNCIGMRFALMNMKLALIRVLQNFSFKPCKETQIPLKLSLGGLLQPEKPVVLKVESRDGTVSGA
Series [16] is described as follows: Drug level in C57BL/6J mouse liver at 10 mg/kg/day, ip dosed for 5 days. Conditions: read-out: Drug uptake. It counts as ADME, organism-based. The arrangement: route intraperitoneal.
Series [17] relates to Mus musculus. In words: Increase in plasma triglyceride level in C57BL/6J mouse at 10 mg/kg/day, ip dosed for 5 days measured 2 hrs after last dose. It is filed as functional. Particulars: route intraperitoneal.
Series [18] can be described thus: Plasma concentration in C57BL/6J mouse at 40 mg/kg/day, ip dosed for 5 days. It is filed as ADME, organism-based. The arrangement: route intraperitoneal.
Series [19] concerns the target T2, Oxysterols receptor LXR-alpha (Homo sapiens) (UniProt Q13133).
T2 sequence (whole entry): T1 sequence (Q13133 whole entry)
Described as §1.

Series [20] deals with T2, Oxysterols receptor LXR-alpha (Homo sapiens). The description is as §2.

Voltage-gated inwardly rectifying potassium channel KCNH2, sequence (Q12809 whole entry): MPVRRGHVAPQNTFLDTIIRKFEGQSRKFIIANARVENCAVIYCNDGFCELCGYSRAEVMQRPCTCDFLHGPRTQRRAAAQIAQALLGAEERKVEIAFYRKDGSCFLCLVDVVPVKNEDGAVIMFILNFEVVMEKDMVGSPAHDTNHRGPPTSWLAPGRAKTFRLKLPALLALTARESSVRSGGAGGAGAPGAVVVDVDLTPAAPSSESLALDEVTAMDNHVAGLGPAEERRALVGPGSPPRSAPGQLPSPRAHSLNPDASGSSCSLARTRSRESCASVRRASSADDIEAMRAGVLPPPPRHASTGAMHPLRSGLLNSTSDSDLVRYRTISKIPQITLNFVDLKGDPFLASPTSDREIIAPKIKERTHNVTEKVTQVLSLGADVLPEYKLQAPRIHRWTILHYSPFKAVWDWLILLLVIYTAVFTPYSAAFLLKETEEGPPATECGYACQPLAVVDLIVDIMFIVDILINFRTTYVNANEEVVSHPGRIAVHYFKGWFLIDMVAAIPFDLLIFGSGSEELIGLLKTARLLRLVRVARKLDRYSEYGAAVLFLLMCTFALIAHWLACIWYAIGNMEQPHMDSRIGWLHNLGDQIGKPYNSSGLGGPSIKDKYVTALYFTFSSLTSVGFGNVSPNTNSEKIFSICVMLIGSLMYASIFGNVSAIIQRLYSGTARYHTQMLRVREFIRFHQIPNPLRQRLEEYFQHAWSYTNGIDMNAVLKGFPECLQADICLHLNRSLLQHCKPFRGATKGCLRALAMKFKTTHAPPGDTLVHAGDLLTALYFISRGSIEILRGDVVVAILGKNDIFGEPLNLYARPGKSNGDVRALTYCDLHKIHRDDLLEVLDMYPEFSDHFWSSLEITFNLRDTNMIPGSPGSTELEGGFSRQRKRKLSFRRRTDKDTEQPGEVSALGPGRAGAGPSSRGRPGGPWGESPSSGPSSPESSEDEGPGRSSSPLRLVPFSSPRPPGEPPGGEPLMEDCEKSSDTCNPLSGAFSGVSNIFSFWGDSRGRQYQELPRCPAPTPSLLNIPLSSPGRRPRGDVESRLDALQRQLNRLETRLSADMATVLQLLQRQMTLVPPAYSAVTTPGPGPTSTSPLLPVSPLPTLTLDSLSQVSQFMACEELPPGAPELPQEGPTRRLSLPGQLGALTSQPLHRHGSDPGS

As for `COC(=O)c1noc([C@](F)([C@H]2Cc3[nH]c4ccc(Cl)cc4c3C2)S(=O)(=O)c2ccccc2)n1` (racemic), the concentration for a half-maximal effect (EC50) in series [1] turned out to be 1260 nM. Besides, the half-inhibitory concentration (IC50) in series [2] turned out to be 1630 nM.
For the molecule `Cc1nnc([C@](F)([C@H]2Cc3[nH]c4ccc(Cl)cc4c3C2)S(=O)(=O)c2ccccc2)o1`, the Activity is given as -2% in the series on Mus musculus [3]; 27% in the series with Mus musculus [5]; 36% in the series on Mus musculus [6]; 100% in the series with Mus musculus [7]; 45% in the series on Mus musculus [9]; 27% in the series on Mus musculus [11]. For the same molecule, the Activity entry in series [12] is recorded as “Not Active”; in the series with Mus musculus [14], 9%; with Mus musculus [15], -19%; on Cytochrome P450 3A4, “Not Active”; in the series on Mus musculus [17] it was 9%. For the same molecule, the concentration at 120 h in [4] is 2150 ng/mL; in series [8] it was 5490 ng/g; in series [10], 13200 ng/g; in [13], 180 ng/mL; in series [16], 1130 ng/g; in [18] it was 682 ng/mL.
Consider `N#Cc1noc([C@](F)([C@H]2Cc3[nH]c4ccc(Cl)cc4c3C2)S(=O)(=O)c2ccccc2)n1` (racemic), for which the 50% effective concentration (EC50) in series [1] worked out at 160 nM. In [2], this molecule had an IC50 of 100 nM.
With `COC(=O)C(C)(C1CCCc2c([nH]c3ccc(Cl)cc23)C1)S(=O)(=O)c1ccccc1` (stereo not drawn), the result in series [19] and in series [20] was inactive.
For `O=S(=O)(c1ccccc1)N(CC(F)(F)F)c1ccc(C(O)(C(F)(F)F)C(F)(F)F)cc1` [T091317], the Activity was found to be 270% in the series on Mus musculus [7], 23% with Mus musculus [11] and 20% in the series on Mus musculus [17]. Also, the concentration at 120 h was found to be 255 ng/mL in [13] and 7900 ng/g in [16].

As a reminder, the EC50 is the concentration giving half of the maximal effect. A higher EC50 goes with a need for much substance. One may read the IC50 as the concentration that gives 50% inhibition. A lower IC50 goes with greater potency.
